Measurements as given in US6838084B1, “Cytotoxic T-cell epitopes of the papilloma virus l1-protein and use thereof in diagnosis and therapy” (priority 1999, dated 2005).
Like-named read-outs stand apart in the source and are kept apart here.

Tests used:
CVLP-stimulated T cells [1] = assay: Restimulation of CVLP-stimulated T cells, HLA A1-positive donor, 20 mer peptides (γ-interferon FACScan); type: cell-based, human; settings: for restimulation of CVLP-stimulated T cells (CD8-positive T cells reactive by γ-interferon expression): PBMCs with 10 μg/ml peptide, HLA A1-positive donor, FIG. 4
Experimental: (§1) The name of the particular peptide with which the PBMCs were loaded is listed from left to right. “None” represents PBMCs which were incubated only with buffer.
(§2) Human T cells (4×10^5) of an HLA A1-positive donor were stimulated with HPV16 L1ΔC·E71-55 CVLPs at 37° C. for 5 weeks with weekly addition of 1 μg/ml CVLPs and 10^5 antigen-presenting cells (irradiated PMBCs), and harvested. The cells were then restimulated in 100 μl of medium at 37° C. with 10 μg/ml of the peptides listed along the X axis of FIG. 4 in the presence of 10 IU/ml IL2. Cells incubated only with buffer served as a negative control.
(§3) After one hour, 1 μl of Monensin (300 μM) was added. The cells were incubated at 37° C. for a further 5 hours. The cells were then fixed and permeabilized, and stained with α-hum CD8/PE, with α-hum CD4/Cychrome and with α-hum γ-interferon/FITC. The cells were examined in a FACScan calibur with respect to their label and the data were analyzed with the aid of Cellquest software.

CVLP-stimulated T cells [2] = assay: Restimulation of CVLP-stimulated T cells, non-HLA-classified donor, 20 mer peptides (γ-interferon FACScan); type: cell-based, human; settings: for restimulation of CVLP-stimulated T cells (CD4-positive T cells reactive by γ-interferon expression): PBMCs with 10 μg/ml peptide, non-HLA-classified donor, FIG. 5; for Epitop-Information (epitope type): Table 2
Experimental: as §1
as §2, with “of a non-HLA-classified” for “of an HLA A1-positive”, “for 6” for “for 5”, “FIG. 5” for “FIG. 4”
as §3

HLA A1 molecules = settings: Kast et al. (1994) Journal of Immunology 152, 3904-3912, cited from earlier work
CVLP-stimulated T cells [3] = assay: Restimulation of CVLP-stimulated T cells, HLA A2.01-positive donor (γ-interferon FACScan); type: cell-based, human; settings: PBMCs incubated with 10 μg/ml antigen, FIG. 3
Experimental: The content of T cell-specific CD3 for each experiment is listed from left to right and the content of human γ interferon which is specific for activated cells is listed from bottom to top.
Human T cells (4×10^5) of an HLA A2.01-positive donor were stimulated with HPV16 LlΔC·E71-55 CVLPs at 37° C. for 8 weeks with weekly addition of 1 μg/ml CVLPs and 10^5 antigen-presenting cells (irradiated PMBCs), and harvested. The cells were then restimulated in 100 μl of medium at 37° C. with 10 μg/ml various antigens in the presence of 10 IU/ml IL2 and 0.5 μg/ml α-human CD28: • a) with CVLP-incubated PBMCs overnight • b) with L1 2022 peptide-incubated PBMCs overnight • c) with L1 2025 peptide (control peptide)incubated PBMCs overnight
as §3, with “Golgi Plug” for “Monensin (300 μM)”, “CD3/PE,” for “CD8/PE,”

CVLP-specific T cells = assay: Peptide-specific TNFα secretion by CVLP-stimulated T cells (WEHI cell/MTT readout); type: cell-based, human; settings: PMBC + 10 μg/ml peptide, overnight, 10 IU/ml IL-2; HLA A2.01-positive donor; FIG. 1
From the text: T cells stimulated by specific, antigen-presenting PBLs release TNFα. This induces apoptosis in WEHI cells so that these cells are no longer able to process MTT into a brownish dye. Low absorption means low dye production and thus many apoptotic cells which had thus been exposed to a lot of TNFα so that the corresponding T cells had been stimulated. Thus, stimulation of T cells improves with decreasing absorption at 595 nm for a particular antigen.
Human T cells (4×10^5) of an HLA A2.01-positive donor were stimulated with HPV16 L1ΔC·E71-55 CVLPs at 37° C. for 8 weeks with weekly addition of 1 μg/ml CVLPs, 10^5 irradiated peripheral blood mononuclear cells (PMBCs) and 10 IU/ml IL-2, and harvested.
The cells were stimulated in 100 μl of medium at 37° C. overnight with different antigens (PMBC+E7 peptide; PMBC+HPV16 L1αC·E71-55 (CVLP); PMBC+5104, 5105, 5106, 5107, 5108, 5109, 5112, 5113, 10 μg/ml each) in the presence of 10 IU/ml IL-2. During this time, stimulated cells produce TNFα.
The following day, 50 μl of supernatant were removed, frozen, thawed again (in order to destroy possibly coremoved cells) and added to 50 μl of a cell suspension containing 0.9×10^6 WEHI cells, 2 μg/ml actinomycin D and 400 mM LiCl. The cells were incubated at 37° C. for 24 h. During this time, TNFα (if present in the supernatant) induces apoptosis of WEHI cells. Addition of 50 μl of a 2.5 mg/ml MTT solution in PBS stained non-apoptotic cells brown within three hours, whereas apoptotic cells remained yellow. All cells were lysed by adding 100 μl of lysis buffer (34% N,N-dimethylformamide, 20% sodium dodecyl sulfate) and incubating at 37° for at least 6 hours so that the dyes were released. Finally, absorption of the solution was measured at 595 nm.
Low absorption means low dye production and thus many apoptotic cells which had thus been exposed to a lot of TNFα so that the corresponding T cells had been stimulated. Thus, T-cell stimulation improved with decreasing absorption at 595 nm.

[4] = target: T1, MHC-1 complexes of T2 cells (Homo sapiens, UniProt P04439, I119V/I121R/I166T/I218V/L300P/L318F/N151K/N90K/P208A/P217A/Q86G/Q94H/R138H/R169H/T345S); type: binding; settings: 0, 10 or 100 μg/ml peptide overnight; BB7.2 antibody, FACS; FIG. 2
T1 construct: The unloaded MHC-1 molecules which are nevertheless present on the cell surface; host or cells: T2 cells

CVLP-stimulated T cells [5] = assay: Restimulation of CVLP-stimulated T cells with peptide pools, HLA A1-positive donor; type: cell-based, human; settings: common to pools E and 6
Experimental: The name of the particular peptide pool with which the PBMCs were loaded is listed from left to right. “None” represents PBMCs which were incubated only with buffer.
Human T cells (4×10^5) of an HLA A1-positive donor were stimulated with HPV16 L1ΔC·E71-55 CVLPs at 37° C. for 6 weeks with weekly addition of 1 μg/ml CVLPs and 10^5 antigen-presenting cells (irradiated PMBCs), and harvested.
The 20 mer peptides 1 to 51 were combined in peptide pools A to H and 1 to 7 according to the matrix
The T cells of an HLA A1-positive donor were then restimulated in 100 μl of medium at 37° C. with the peptide pools in the presence of 10 IU/ml IL2. In this connection, such amounts of peptide pools were used that for each individual peptide 1 μg/ml was added. Cells incubated only with buffer served as a negative control.
as §3, with “Golgi Plug” for “Monensin (300 μM)”

## AEPDRAHYNIVTFCCXCDST (AEPDRAHYNIVTFCCKCDST; Human papillomavirus type 16) [Peptide 48]
CVLP-stimulated T cells [1]
  restimulation of CVLP-stimulated T cells (CD8-positive T cells reactive by γ-interferon expression): effected restimulation of CVLP-stimulated T cells

## ASSNYFPTPSGSMVTSDAQI [Peptide 27]
CVLP-stimulated T cells [2]
  restimulation of CVLP-stimulated T cells (CD4-positive T cells reactive by γ-interferon expression): effected restimulation of CVLP-stimulated T cells
  Epitop-Information (epitope type): T-helper epitope

## EEDEIDGPAGQAEPDRAHYN (Human papillomavirus type 16) [Peptide 47]
CVLP-stimulated T cells [1]
  restimulation of CVLP-stimulated T cells (CD8-positive T cells reactive by γ-interferon expression): effected restimulation of CVLP-stimulated T cells

## ETTDLYCY (Human papillomavirus type 16) [peptide contained in peptide 45]
HLA A1 molecules
  binding to HLA A1 molecules: described as HLA A1-binding peptide
HLA A1 molecules; listed as E7 peptide 45
  binding to HLA A1 molecules: can bind to HLA A1 molecules

## GLQYRVFRI (Human papillomavirus type 16) [Peptide 2025]
CVLP-stimulated T cells [3]
  restimulation of CVLP-stimulated T cells (γ interferon, CD3): not control peptide-incubated PBMCs, effected restimulation

## HLFNRAGTV (Human papillomavirus type 16) [Peptide 5107]
CVLP-specific T cells
  stimulating CVLP-specific T cells (TNFα secretion, absorption at 595 nm): capable of stimulating CVLP-specific T cells
[4]
  MHC molecules on the cell surface of T2 cells (fluorescence), indicating binding to MHC molecules: significantly more MHC molecules on the cell surface

## ICWGNQLFV (Human papillomavirus type 16) [Peptide 2022]
[4]
  MHC molecules on the cell surface of T2 cells (fluorescence), indicating binding to MHC molecules: significantly more MHC molecules on the cell surface
CVLP-stimulated T cells [3]
  restimulation of CVLP-stimulated T cells (γ interferon, CD3): effected restimulation of CVLP-stimulated T cells

## ILEDWNFGL (Human papillomavirus type 16) [Peptide 5112]
CVLP-specific T cells
  stimulating CVLP-specific T cells (TNFα secretion, absorption at 595 nm): capable of stimulating CVLP-specific T cells
[4]
  MHC molecules on the cell surface of T2 cells (fluorescence), indicating binding to MHC molecules: significantly more MHC molecules on the cell surface

## ILVPKVSGL (Human papillomavirus type 16) [Peptide 5104]
CVLP-specific T cells
  stimulating CVLP-specific T cells (TNFα secretion, absorption at 595 nm): capable of stimulating CVLP-specific T cells

## MHGDTPTLH (Human papillomavirus type 16) [9 mer contained in peptide 43]
HLA A1 molecules
  binding to HLA A1 molecules: described as HLA A1-binding peptides
HLA A1 molecules; listed as E7 peptide 43
  binding to HLA A1 molecules: can bind to HLA A1 molecules

## MLDLQPETTDLYCYEQLNDS (Human papillomavirus type 16) [Peptide 45]
CVLP-stimulated T cells [5]
  peptide responsible for restimulation, deduced from pool matrix: in all probability responsible for restimulation of CVLP-stimulated T cells

## NLASSNYFPT (Human papillomavirus type 16) [Peptide 2017]
[4]
  MHC molecules on the cell surface of T2 cells (fluorescence), indicating binding to MHC molecules: significantly more MHC molecules on the cell surface

## PLGRKFLLQAGMHGDTPTLH (Human papillomavirus type 16) [Peptide 43]
CVLP-stimulated T cells [1]
  restimulation of CVLP-stimulated T cells (CD8-positive T cells reactive by γ-interferon expression): effected restimulation of CVLP-stimulated T cells
CVLP-stimulated T cells [1]; Table 2
  Epitop-Information (HLA restriction): HLA A1 restr.
  Epitop-Information (epitope type): cytotoxic epitope

## QAEPDRAHYN (Human papillomavirus type 16) [10 mer contained in overlapping peptides 47 and 48]
HLA A1 molecules
  binding to HLA A1 molecules: described as HLA A1-binding peptides
HLA A1 molecules; listed as E7 peptide 47/48
  binding to HLA A1 molecules: can bind to HLA A1 molecules

## RLVWACVGV (Human papillomavirus type 16) [Peptide 5106]
CVLP-specific T cells
  stimulating CVLP-specific T cells (TNFα secretion, absorption at 595 nm): capable of stimulating CVLP-specific T cells
[4]
  MHC molecules on the cell surface of T2 cells (fluorescence), indicating binding to MHC molecules: significantly more MHC molecules on the cell surface

## SLWLPSEATVYL [Peptide 2016]
[4]
  MHC molecules on the cell surface of T2 cells (fluorescence), indicating binding to MHC molecules: significantly more MHC molecules on the cell surface

## SMVTSDAQIFNKPYWLQRAQ [Peptide 28]
CVLP-stimulated T cells [2]
  restimulation of CVLP-stimulated T cells (CD4-positive T cells reactive by γ-interferon expression): effected restimulation of CVLP-stimulated T cells
  Epitop-Information (epitope type): T-helper epitope

## TLQANKSEV (Human papillomavirus type 16) [Peptide 5109]
CVLP-specific T cells
  stimulating CVLP-specific T cells (TNFα secretion, absorption at 595 nm): capable of stimulating CVLP-specific T cells
[4]
  MHC molecules on the cell surface of T2 cells (fluorescence), indicating binding to MHC molecules: significantly more MHC molecules on the cell surface

## TLTADVMTYI (Human papillomavirus type 16) [Peptide 2018]
[4]
  MHC molecules on the cell surface of T2 cells (fluorescence), indicating binding to MHC molecules: significantly more MHC molecules on the cell surface

## YDLQFIFQL (Human papillomavirus type 16) [Peptide 2020]
[4]
  MHC molecules on the cell surface of T2 cells (fluorescence), indicating binding to MHC molecules: significantly more MHC molecules on the cell surface

## YLPPVPVSKV (Human papillomavirus type 16) [Peptide 2019]
[4]
  MHC molecules on the cell surface of T2 cells (fluorescence), indicating binding to MHC molecules: significantly more MHC molecules on the cell surface

## YLRREQMFV (Human papillomavirus type 16) [Peptide 5108]
CVLP-specific T cells
  stimulating CVLP-specific T cells (TNFα secretion, absorption at 595 nm): capable of stimulating CVLP-specific T cells
